Data from BindingDB's records for doi:10.1016/0922-4106(94)90227-5 (Novo Nordisk, 1994).

Columns and labels:
[1] = target: Metabotropic glutamate receptor 1 (Rattus norvegicus, UniProt P23385)
[2] = target: Metabotropic glutamate receptor 2 (Homo sapiens, UniProt Q14416)
[3] = target: Glutamate receptor ionotropic, kainate 1 (Rattus norvegicus, UniProt P22756)
[4] = target: Metabotropic glutamate receptor 4 (Rattus norvegicus, UniProt P31423)
Glutamate receptor 3 = Glutamate receptor 3 (Rattus norvegicus, UniProt P19492)
[5] = target: Glutamate receptor ionotropic, NMDA 1 (Rattus norvegicus, UniProt P35439)

Measured: Ki

Metabotropic glutamate receptor 4, sequence (P31423 whole entry): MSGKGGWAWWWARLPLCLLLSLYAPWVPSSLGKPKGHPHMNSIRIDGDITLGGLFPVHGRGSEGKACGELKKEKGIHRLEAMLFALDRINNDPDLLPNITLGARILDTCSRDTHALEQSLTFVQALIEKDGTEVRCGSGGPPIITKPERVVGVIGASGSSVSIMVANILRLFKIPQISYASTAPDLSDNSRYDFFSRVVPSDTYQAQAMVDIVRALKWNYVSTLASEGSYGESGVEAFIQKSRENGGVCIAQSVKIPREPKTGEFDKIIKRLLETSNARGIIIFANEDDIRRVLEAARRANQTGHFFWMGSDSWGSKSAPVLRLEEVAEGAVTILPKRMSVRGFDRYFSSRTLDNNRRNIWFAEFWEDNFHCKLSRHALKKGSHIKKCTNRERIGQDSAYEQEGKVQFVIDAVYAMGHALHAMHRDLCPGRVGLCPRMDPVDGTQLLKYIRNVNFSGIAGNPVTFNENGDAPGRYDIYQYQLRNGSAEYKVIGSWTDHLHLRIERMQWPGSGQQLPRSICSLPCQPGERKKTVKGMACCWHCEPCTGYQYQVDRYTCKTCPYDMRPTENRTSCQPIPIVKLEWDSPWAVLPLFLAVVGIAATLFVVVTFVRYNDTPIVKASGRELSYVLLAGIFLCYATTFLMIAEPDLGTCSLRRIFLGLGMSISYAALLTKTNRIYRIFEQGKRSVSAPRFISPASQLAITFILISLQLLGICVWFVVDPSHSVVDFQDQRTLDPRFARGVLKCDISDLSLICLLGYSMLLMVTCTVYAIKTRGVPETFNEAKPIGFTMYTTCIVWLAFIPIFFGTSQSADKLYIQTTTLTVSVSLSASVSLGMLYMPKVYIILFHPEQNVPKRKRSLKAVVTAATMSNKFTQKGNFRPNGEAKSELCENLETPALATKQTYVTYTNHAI
Metabotropic glutamate receptor 1, sequence (P23385 whole entry): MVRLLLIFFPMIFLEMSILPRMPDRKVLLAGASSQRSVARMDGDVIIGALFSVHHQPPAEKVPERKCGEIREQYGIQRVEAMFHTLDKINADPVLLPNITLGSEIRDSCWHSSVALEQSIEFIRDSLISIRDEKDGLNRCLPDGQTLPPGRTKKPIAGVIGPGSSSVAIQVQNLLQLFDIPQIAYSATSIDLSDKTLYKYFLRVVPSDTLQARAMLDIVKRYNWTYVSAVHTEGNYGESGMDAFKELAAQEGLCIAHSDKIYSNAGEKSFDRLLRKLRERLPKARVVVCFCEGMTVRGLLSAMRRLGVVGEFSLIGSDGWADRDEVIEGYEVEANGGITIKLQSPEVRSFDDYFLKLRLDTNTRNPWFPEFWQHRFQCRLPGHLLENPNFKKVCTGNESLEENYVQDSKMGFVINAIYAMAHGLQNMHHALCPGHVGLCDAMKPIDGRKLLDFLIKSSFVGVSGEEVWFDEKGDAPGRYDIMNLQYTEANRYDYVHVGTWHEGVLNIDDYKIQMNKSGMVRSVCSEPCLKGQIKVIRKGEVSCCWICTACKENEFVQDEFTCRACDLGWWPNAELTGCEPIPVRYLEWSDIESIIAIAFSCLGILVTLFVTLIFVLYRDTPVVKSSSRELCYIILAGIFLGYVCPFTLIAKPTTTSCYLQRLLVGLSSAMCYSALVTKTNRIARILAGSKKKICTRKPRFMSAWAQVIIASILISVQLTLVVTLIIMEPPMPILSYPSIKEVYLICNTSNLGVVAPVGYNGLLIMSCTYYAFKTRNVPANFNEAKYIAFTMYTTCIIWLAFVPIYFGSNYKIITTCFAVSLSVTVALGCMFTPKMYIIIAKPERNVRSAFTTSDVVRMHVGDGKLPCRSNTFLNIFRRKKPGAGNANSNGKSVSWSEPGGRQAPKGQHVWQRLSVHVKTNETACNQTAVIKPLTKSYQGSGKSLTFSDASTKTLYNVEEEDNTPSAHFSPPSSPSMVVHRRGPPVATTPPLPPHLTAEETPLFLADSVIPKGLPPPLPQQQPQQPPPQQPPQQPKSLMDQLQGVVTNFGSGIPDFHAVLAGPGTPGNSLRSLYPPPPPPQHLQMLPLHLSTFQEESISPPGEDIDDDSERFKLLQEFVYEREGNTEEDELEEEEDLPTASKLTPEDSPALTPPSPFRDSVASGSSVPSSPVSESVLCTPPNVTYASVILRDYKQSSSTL
Glutamate receptor ionotropic, kainate 1, sequence (P22756 whole entry): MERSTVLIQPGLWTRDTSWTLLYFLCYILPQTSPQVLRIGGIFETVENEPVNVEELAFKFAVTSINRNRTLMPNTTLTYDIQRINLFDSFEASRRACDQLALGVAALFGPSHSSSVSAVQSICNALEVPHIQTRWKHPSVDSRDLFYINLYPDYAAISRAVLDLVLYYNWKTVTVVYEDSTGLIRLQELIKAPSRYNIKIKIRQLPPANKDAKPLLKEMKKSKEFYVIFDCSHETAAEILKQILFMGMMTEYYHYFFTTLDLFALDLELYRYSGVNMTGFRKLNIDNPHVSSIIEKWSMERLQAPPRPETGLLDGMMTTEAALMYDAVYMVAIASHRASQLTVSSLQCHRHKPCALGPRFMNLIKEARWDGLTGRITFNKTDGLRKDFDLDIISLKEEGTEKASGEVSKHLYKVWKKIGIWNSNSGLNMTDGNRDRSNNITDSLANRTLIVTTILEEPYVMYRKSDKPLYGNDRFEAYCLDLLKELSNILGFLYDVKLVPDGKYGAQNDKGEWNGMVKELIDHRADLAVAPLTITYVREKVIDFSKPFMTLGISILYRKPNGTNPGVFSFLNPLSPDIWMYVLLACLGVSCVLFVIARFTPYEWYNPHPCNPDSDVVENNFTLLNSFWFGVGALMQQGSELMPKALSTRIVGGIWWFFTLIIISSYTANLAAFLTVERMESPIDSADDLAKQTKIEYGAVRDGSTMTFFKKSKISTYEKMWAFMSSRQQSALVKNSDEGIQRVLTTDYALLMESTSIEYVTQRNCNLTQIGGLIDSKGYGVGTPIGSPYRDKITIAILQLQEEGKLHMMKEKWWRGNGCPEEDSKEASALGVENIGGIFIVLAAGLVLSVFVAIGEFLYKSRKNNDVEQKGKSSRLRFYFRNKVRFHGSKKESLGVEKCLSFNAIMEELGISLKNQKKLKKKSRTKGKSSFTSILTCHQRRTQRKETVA
Glutamate receptor 3, sequence (P19492 whole entry): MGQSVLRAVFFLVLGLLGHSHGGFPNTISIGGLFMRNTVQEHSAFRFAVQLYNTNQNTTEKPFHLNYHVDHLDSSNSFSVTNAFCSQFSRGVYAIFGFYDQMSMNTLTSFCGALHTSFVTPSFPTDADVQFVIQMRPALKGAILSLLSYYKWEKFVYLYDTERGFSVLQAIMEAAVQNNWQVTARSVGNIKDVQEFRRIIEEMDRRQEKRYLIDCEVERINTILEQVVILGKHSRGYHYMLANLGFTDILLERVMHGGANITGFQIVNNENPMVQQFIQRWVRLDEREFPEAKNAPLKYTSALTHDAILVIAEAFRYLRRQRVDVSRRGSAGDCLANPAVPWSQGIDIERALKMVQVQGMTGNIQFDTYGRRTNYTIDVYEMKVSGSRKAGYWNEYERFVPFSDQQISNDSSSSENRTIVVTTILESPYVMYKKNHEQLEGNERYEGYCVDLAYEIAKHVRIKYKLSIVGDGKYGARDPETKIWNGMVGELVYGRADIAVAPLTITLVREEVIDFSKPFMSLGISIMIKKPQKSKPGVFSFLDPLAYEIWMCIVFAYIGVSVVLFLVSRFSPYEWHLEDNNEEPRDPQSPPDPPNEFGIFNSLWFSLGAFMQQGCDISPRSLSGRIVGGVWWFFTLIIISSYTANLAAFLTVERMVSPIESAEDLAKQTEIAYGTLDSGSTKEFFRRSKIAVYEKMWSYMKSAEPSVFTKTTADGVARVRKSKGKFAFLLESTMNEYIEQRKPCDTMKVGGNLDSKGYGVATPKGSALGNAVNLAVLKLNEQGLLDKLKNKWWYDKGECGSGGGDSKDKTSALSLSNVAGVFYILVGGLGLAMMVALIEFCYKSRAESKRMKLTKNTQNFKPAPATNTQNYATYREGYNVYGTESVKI
Metabotropic glutamate receptor 2, sequence (Q14416 whole entry): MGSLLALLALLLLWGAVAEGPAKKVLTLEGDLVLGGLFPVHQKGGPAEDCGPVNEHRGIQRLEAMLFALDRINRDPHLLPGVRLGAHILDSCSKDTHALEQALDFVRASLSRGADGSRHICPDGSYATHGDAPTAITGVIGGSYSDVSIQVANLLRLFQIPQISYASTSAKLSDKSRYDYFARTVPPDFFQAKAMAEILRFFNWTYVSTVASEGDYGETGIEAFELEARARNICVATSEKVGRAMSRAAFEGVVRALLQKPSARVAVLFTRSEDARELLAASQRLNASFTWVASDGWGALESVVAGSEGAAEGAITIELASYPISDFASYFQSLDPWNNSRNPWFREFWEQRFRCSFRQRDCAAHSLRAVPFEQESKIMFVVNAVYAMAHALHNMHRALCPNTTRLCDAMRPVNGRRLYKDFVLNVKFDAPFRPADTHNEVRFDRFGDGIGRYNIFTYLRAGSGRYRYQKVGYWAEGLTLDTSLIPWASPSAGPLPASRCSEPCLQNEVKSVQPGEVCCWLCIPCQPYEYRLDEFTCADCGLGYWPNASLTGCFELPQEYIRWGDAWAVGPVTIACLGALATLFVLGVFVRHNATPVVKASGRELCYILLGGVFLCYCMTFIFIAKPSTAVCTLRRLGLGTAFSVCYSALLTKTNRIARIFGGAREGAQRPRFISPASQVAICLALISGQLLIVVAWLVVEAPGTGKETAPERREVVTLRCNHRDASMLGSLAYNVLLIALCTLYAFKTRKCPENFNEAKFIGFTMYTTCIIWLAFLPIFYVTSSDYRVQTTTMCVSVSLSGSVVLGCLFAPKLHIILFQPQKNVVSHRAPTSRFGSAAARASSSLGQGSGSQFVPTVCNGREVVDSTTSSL

C[C@@](N)(C(=O)O)c1ccc(C(=O)O)cc1 (racemic)
> 10 µM: all assays above

N[C@H](C(=O)O)c1ccc(O)c(C(=O)O)c1 [3C4HPG]
> 10 µM: all assays above

N[C@H](C(=O)O)c1ccc(C(=O)O)cc1 [4-((S)-Amino-carboxy-methyl)-benzoic acid]
> 10 µM: all assays above

NC(C(=O)O)c1ccc(C(=O)O)cc1 (centres undefined) [4-(Amino-carboxy-methyl)-benzoic acid]
> 10 µM: [1] | [2] | [4]

N[C@@H](C(=O)O)c1cccc(O)c1 [(R)-3-Hydroxyphenylglyci]
> 10 µM: all assays above

N[C@H](C(=O)O)c1cccc(O)c1 [(S)-3-Hydroxyphenylglycine]
> 10 µM: all assays above

N[C@@H](C(=O)O)c1ccc(C(=O)O)cc1 [(S)-4CPG]
> 10 µM: all assays above

N[C@@H](C(=O)O)c1ccc(O)c(C(=O)O)c1 [CB7394016]
not listed: Glutamate receptor 3
> 10 µM: all other assays above
